Test results from US10757937B2, “Sulfonamides that activate ABA receptors” (The Regents of the University of California, priority 2014, dated 2020).
Like-named read-outs stand apart in the source and are kept apart here.

Columns and labels:
[1] = target: T1, PYL4 (Arabidopsis thaliana, UniProt O80920); experiment: receptor-mediated PP2C (HAB1) inhibition in vitro assay; format: biochemical; settings: for remaining activity at 50 µM: 50 uM of the test compound; for remaining activity at 25 µM: compound at 25 μM, control without agonist = 100%
T1 construct: 6X-His; made in house; host or cells: E. coli BL21[DE3]pLysS
T1 sequence (O80920 1-207): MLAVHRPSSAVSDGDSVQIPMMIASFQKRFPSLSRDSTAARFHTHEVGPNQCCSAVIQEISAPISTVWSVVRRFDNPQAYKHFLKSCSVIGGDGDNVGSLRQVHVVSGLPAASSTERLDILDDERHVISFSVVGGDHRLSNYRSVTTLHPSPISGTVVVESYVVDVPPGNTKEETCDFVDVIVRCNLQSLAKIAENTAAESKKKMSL
T1 sequence (Q9CAJ0 23-511 partner): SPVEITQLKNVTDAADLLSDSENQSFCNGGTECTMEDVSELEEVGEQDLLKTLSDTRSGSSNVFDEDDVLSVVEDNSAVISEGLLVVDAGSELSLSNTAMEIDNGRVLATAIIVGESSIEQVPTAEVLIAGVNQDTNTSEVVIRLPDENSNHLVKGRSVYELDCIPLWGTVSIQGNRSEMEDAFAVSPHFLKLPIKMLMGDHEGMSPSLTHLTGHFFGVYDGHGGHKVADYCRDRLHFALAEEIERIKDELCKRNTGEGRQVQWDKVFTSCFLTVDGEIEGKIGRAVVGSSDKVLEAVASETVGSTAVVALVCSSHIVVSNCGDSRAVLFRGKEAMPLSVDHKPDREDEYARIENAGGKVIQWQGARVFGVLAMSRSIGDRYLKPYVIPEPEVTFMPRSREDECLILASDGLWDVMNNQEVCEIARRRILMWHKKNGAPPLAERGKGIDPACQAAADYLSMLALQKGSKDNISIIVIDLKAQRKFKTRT
Method in brief: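 Compounds, tested at 25 μM or 50 uM with ABA at 10 uM, were incubated with recombinant receptor and 50 nM GST-HAB1 (2:1 ratio) in MnCl2-containing Tris-OAc buffer, pH 7.9. Phosphatase activity was followed by 4-methylumbelliferyl-phosphate fluorescence.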

[2] = target: T2, PYL10 (Arabidopsis thaliana, UniProt Q8H1R0); experiment: as above; format: biochemical; settings: for remaining activity at 50 µM: 50 uM of the test compound
T2 construct: 6X-His; made in house; host or cells: E. coli BL21[DE3]pLysS
T2 sequence (Q8H1R0 1-183): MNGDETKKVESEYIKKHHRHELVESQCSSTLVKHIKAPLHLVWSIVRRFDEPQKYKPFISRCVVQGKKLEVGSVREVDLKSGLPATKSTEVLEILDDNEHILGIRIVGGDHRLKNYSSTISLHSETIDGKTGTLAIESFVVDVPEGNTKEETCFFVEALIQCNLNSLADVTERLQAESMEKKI
T2 sequence (Q9CAJ0 23-511 partner): T1 sequence (Q9CAJ0 23-511 partner)
Method in brief: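 His-tagged receptors (MBP fusion for PYL11) at 2:1 ratio to 50 nM GST-HAB1 in 100 mM Tris-OAc pH 7.9, 100 mM NaCl, 1 mM MnCl2; 4-methylumbelliferyl-phosphate fluorogenic substrate. Compounds at 50 uM (ABA 10 uM); IC50 from dose curves for selected compounds.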

[3] = target: T3, PYL8 (Arabidopsis thaliana, UniProt Q9FGM1); experiment: as above; format: biochemical; settings: for remaining activity at 50 µM: 50 uM of the test compound; for remaining activity at 25 µM: compound at 25 μM, control without agonist = 100%
T3 construct: 6X-His; made in house; host or cells: E. coli BL21[DE3]pLysS
T3 sequence (Q9FGM1 1-188): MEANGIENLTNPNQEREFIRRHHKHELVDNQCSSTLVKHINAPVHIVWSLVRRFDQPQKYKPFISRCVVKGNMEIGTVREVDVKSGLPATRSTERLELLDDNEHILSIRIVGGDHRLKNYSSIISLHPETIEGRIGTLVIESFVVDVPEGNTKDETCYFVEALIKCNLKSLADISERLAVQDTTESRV
T3 sequence (Q9CAJ0 23-511 partner): T1 sequence (Q9CAJ0 23-511 partner)
Method in brief: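 Fluorogenic readout: 4-methylumbelliferyl-phosphate hydrolysis by 50 nM GST-HAB1 plus 2:1 His-receptor; Tris-OAc pH 7.9, NaCl, 1 mM MnCl2, β-ME. Compounds at 25 μM or 50 uM single dose; IC50 from dose curves for selected compounds.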

[4] = test system: Arabidopsis seed germination and hypocotyl growth; experiment: Arabidopsis seed germination and hypocotyl growth; format: in vivo; settings: − = none; for minimal effective concentration: Arabidopsis thaliana, Table VIII, tested at 10 or 50 μM, lowest inhibiting concentration; for Germination Inhibition / Hypocotyl Growth Inhibition: Germination Inhibition II, tested at 10 and 50 uM; for Germination Inhibition: lowest of the two concentrations that inhibited; for Hypocotyl Growth Inhibition: lowest concentration that inhibited hypocotyl growth in wells where seeds germinated
Method in brief: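 Wild-type seeds germinated on ½× Murashige and Skoog medium with compound at 10 and 50 uM, or in a later series at 1, 5, 10, 25 and 50 uM. Reported value is the lowest tested concentration that inhibited germination or hypocotyl growth in wells where seeds germinated.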

[5] = Table XII-B, calculated from dose curves, read-out: PP2C Activity (IC50 in uM) PYL4
[6] = Table XII-B, calculated from dose curves, read-out: PP2C Activity (IC50 in uM) PYL10
[7] = Table XII-B, calculated from dose curves, read-out: PP2C Activity (IC50 in uM) PYL8
[8] = ABA at 1 μM, read-out: Germination Inhibition
[9] = Table VII, read-out: PP2C Dose Curves PYL10 (IC50)
[10] = Table VII, read-out: PP2C Dose Curves PYL8 (IC50)
[11] = read-out: Hypocotyl Growth Inhibition
[12] = Table VII, read-out: PP2C Dose Curves PYL4 (IC50)

Row | remaining activity at 25 µM [1] [%] | IC50 [2, 9] [µM] | IC50 [3, 10] [µM] | remaining activity at 25 µM [3] [%] | IC50 [1, 12] [µM] | Structure (SMILES) | remaining activity at 50 µM [1] [%] | IC50 [1, 5] [µM] | remaining activity at 50 µM [2] [%] | IC50 [2, 6] [µM] | remaining activity at 50 µM [3] [%] | IC50 [3, 7] [µM] | minimal effective concentration [4, 8] [µM] | Germination Inhibition [4] [µM] | minimal effective concentration [4, 11] [µM] | Hypocotyl Growth Inhibition [4] [µM] | PP2C Activity PYL4 ([1]; ABA (10 μM)) | PP2C Activity PYL10 ([2]; ABA (10 μM)) | PP2C Activity PYL8 ([3]; ABA (10 μM))
1 | – | – | – | – | – | O=C(NS(=O)(=O)Cc1ccc(F)cc1)C1(c2ccccc2)CCCCC1 [Compound 64] | 105 | > 50 | 89.8 | > 50 | 101 | > 50 | – | – | – | – | – | – | –
2 | 93 | 4.46 | 1.11 | 16 | – | N#Cc1ccc(CS(=O)(=O)NC(=O)C2(c3ccc(F)cc3)CCCCC2)cc1 [Compound 51] | – | – | – | – | – | – | 10 | 10 | – | – | – | – | –
3 | 89 | 79.1 | 49.5 | 63 | – | Cc1ccccc1C1(C(=O)NS(=O)(=O)Cc2ccc(C#N)cc2)CC1 [Compound 44] | – | – | – | – | – | – | – | – | 50 | 50 | – | – | –
4 | 90 | – | 40 | 54 | – | CC(C)(C(=O)NS(=O)(=O)Cc1ccc(C#N)cc1)c1ccc(Cl)c(Cl)c1 [Compound 7] | – | – | – | – | – | – | 50 | 50 | 10 | 10 | – | – | –
5 | – | – | – | – | – | N#Cc1ccc(CS(=O)(=O)NC(=O)C(c2ccccc2)c2ccccc2)cc1 [Compound 71, N-[(4-Cyanophenyl)methanesulfonyl]-2,2-diphenylacetamide] | 93.2 | > 50 | 86.5 | > 50 | 96.8 | > 50 | – | – | – | – | – | – | –
6 | – | – | – | – | – | N#Cc1ccc(CS(=O)(=O)NC(=O)C(c2ccc(F)cc2)c2ccc(F)cc2)cc1 [Compound 72, N-[(4-Cyanophenyl)methanesulfonyl]-2,2-bis(4-fluorophenyl)acetamide] | 90.1 | > 50 | 98 | > 50 | 98.5 | > 50 | – | – | – | – | – | – | –
7 | 91 | 31.5 | 18.6 | 52 | > 50 | CC(C)(C(=O)NS(=O)(=O)Cc1ccc(C#N)cc1)c1cccc(C#N)c1 [Compound 18] | – | – | – | – | – | – | – | – | – | – | – | – | –
8 | 86 | 50.8 | 9.65 | 36 | > 50 | CCC(CC)(C(=O)NS(=O)(=O)Cc1ccc([N+](=O)[O-])cc1)c1ccccc1 [Compound 19] | – | – | – | – | – | – | 10 | 10 | – | – | – | – | –
9 | 94 | > 50 | > 50 | 62 | – | N#Cc1ccc(CS(=O)(=O)NC(=O)C2(c3ccc(F)cc3)CC2)cc1 [Compound 35] | – | – | – | – | – | – | – | – | 10 | 10 | – | – | –
10 | 90 | – | 8.58 | 35 | – | CC(C)(C(=O)NS(=O)(=O)Cc1ccc([N+](=O)[O-])cc1)c1ccccc1 [Compound 3] | – | – | – | – | – | – | 50 | 50 | 10 | 10 | – | – | –
11 | 95 | > 50 | 22.7 | 41 | – | Cc1cccc(C2(C(=O)NS(=O)(=O)Cc3ccc(C#N)cc3)CCCC2)c1 [Compound 43] | – | – | – | – | – | – | 50 | 50 | 10 | 10 | – | – | –
12 | 96 | > 50 | 3.36 | 28 | – | N#Cc1ccc(CS(=O)(=O)NC(=O)C2(c3ccccc3)CCC2)cc1 [Compound 29] | – | – | – | – | – | – | 50 | 50 | 10 | 10 | – | – | –
13 | 99 | 41.6 | 11.5 | 33 | – | N#Cc1ccc(CS(=O)(=O)NC(=O)C2(c3cccc(F)c3)CCCC2)cc1 [Compound 26] | – | – | – | – | – | – | 50 | 50 | 10 | 10 | – | – | –
14 | 92 | > 50 | 3.23 | 24 | – | N#Cc1ccc(CS(=O)(=O)NC(=O)C2(c3ccc(F)cc3)CCC2)cc1 [Compound 32] | – | – | – | – | – | – | 50 | 50 | 10 | 10 | – | – | –
15 | 90 | > 50 | 26.3 | 52 | – | CC(C)(C(=O)NS(=O)(=O)Cc1ccc(C#N)cc1)c1ccc(Cl)cc1 [Compound 6] | – | – | – | – | – | – | 50 | 50 | 10 | 10 | – | – | –
16 | – | – | – | – | – | N#Cc1ccc(CS(=O)(=O)NC(=O)C(C2CCCCC2)C2CCCCC2)cc1 [Compound 73, N-[(4-Cyanophenyl)methanesulfonyl]-2,2-cyclohexylacetamide] | 98.2 | > 50 | 85.7 | > 50 | 66.1 | > 50 | – | – | – | – | – | – | –
17 | – | – | – | – | – | O=C(NS(=O)(=O)Cc1ccc([N+](=O)[O-])cc1)C1(c2ccccc2)CCCCC1 [Compound 63] | 103 | > 50 | 88.9 | > 50 | 96.6 | > 50 | – | – | – | – | – | – | –
18 | – | – | – | – | – | CC1=CC(=O)CC(C)(C)[C@@]1(O)/C=C/C(C)=C\C(=O)O [ABA, Abscisic acid, reference compound] | – | – | – | – | – | – | – | – | – | – | 10.2 | 13.8 | 7.0
19 | – | > 50 | 48.9 | – | – | CC(C)(C(=O)NS(=O)(=O)Cc1ccc(C#N)cc1)c1ccccc1 [Compound 23] | – | – | – | – | – | – | 50 | 50 | 10 | 10 | – | – | –

Row | Structure (SMILES) | remaining activity at 25 µM [1] [%] | IC50 [2, 9] [µM] | IC50 [3, 10] [µM] | remaining activity at 25 µM [3] [%] | IC50 [1, 12] [µM] | remaining activity at 50 µM [1] [%] | IC50 [1, 5] [µM] | remaining activity at 50 µM [2] [%] | IC50 [2, 6] [µM] | remaining activity at 50 µM [3] [%] | IC50 [3, 7] [µM] | minimal effective concentration [4, 8] [µM] | Germination Inhibition [4] [µM] | minimal effective concentration [4, 11] [µM] | Hypocotyl Growth Inhibition [4] [µM] | PP2C Activity PYL4 ([1]; ABA (10 μM)) | PP2C Activity PYL10 ([2]; ABA (10 μM)) | PP2C Activity PYL8 ([3]; ABA (10 μM))
20 | N#Cc1ccc(CS(=O)(=O)NC(=O)C2(c3cccc(C#N)c3)CC2)cc1 [Compound 50] | 67 | > 50 | 8.39 | 36 | > 50 | – | – | – | – | – | – | – | – | – | – | – | – | –
21 | N#Cc1ccc(CS(=O)(=O)NC(=O)C2(c3ccc(Br)cc3)CC2)cc1 [Compound 30] | 90 | – | > 50 | 82 | – | – | – | – | – | – | – | – | – | 50 | 50 | – | – | –
